Test system: 435261-313-R-J1-PDC complex spheroid viability
Assay: Anticancer human tumor 435261-313-R-J1-PDC patient-derived colon adenocarcinoma cell line growth inhibition [GQUAD]
Conditions: for IC50: curve of first compound; for viability, T/C: stronger effect = lower value
Method in brief: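 Viability of tumor cells grown as complex spheroids with endothelial and stromal cells, exposed to drug combinations. Top concentration at or near clinical Cmax (else 10 microM), diluted in half-log increments.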

[1] = second compound 0.0316 µM, first compound 0.0316 µM
[2] = second compound 0.0316 µM, first compound 0.1 µM
[3] = second compound 0.0316 µM, first compound 0.316 µM
[4] = second compound 0.0316 µM, first compound 1 µM
[5] = second compound 0.0316 µM, first compound 3.16 µM
[6] = second compound 0.0316 µM, first compound 10 µM
[7] = second compound 0.1 µM, first compound 0.0316 µM
[8] = second compound 0.1 µM, first compound 0.1 µM
[9] = second compound 0.1 µM, first compound 0.316 µM
[10] = second compound 0.1 µM, first compound 1 µM
[11] = second compound 0.1 µM, first compound 3.16 µM
[12] = second compound 0.1 µM, first compound 10 µM
[13] = second compound 0.316 µM, first compound 0.0316 µM
[14] = second compound 0.316 µM, first compound 0.1 µM
[15] = second compound 0.316 µM, first compound 0.316 µM
[16] = second compound 0.316 µM, first compound 1 µM
[17] = second compound 0.316 µM, first compound 3.16 µM
[18] = second compound 0.316 µM, first compound 10 µM
[19] = second compound 1 µM, first compound 0.0316 µM
[20] = second compound 1 µM, first compound 0.1 µM
[21] = second compound 1 µM, first compound 0.316 µM
[22] = second compound 1 µM, first compound 1 µM
[23] = second compound 1 µM, first compound 3.16 µM
[24] = second compound 1 µM, first compound 10 µM
[25] = second compound 3.16 µM, first compound 0.0316 µM
[26] = second compound 3.16 µM, first compound 0.1 µM
[27] = second compound 3.16 µM, first compound 0.316 µM
[28] = second compound 3.16 µM, first compound 1 µM
[29] = second compound 3.16 µM, first compound 3.16 µM
[30] = second compound 3.16 µM, first compound 10 µM
[31] = second compound 10 µM, first compound 0.0316 µM
[32] = second compound 10 µM, first compound 0.1 µM
[33] = second compound 10 µM, first compound 0.316 µM
[34] = second compound 10 µM, first compound 1 µM
[35] = second compound 10 µM, first compound 3.16 µM
[36] = second compound 10 µM, first compound 10 µM
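Also: spheroids exposed to the agents for seven days before readout.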
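For viability, T/C in this document: percent of vehicle control viability with DMSO wells as 100%.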

C=CC(=O)N1CCN(c2nc(=O)n(-c3c(C)ccnc3C(C)C)c3nc(-c4c(O)cccc4F)c(F)cc23)C(C)C1 (stereo unspecified) + Cc1cnc(CNC(=O)c2c(=O)c3ccc(N4CCCN(C)CC4)nc3n3c2sc2ccccc23)cn1
IC50 (second compound 0.0316 µM): > 10000 nM
IC50 (second compound 0.1 µM): > 10000 nM
IC50 (second compound 0.316 µM): > 10000 nM
IC50 (second compound 1 µM): < 31.6 nM
IC50 (second compound 3.16 µM): < 31.6 nM
IC50 (second compound 10 µM): < 31.6 nM
viability, T/C [1]: 76.1%
viability, T/C [2]: 59.5%
viability, T/C [3]: 86.8%
viability, T/C [4]: 68.1%
viability, T/C [5]: 98.3%
viability, T/C [6]: 67.4%
viability, T/C [7]: 47.9%
viability, T/C [8]: 63.3%
viability, T/C [9]: 56.6%
viability, T/C [10]: 63.3%
viability, T/C [11]: 63.8%
viability, T/C [12]: 65.7%
viability, T/C [13]: 56.4%
viability, T/C [14]: 59.3%
viability, T/C [15]: 60%
viability, T/C [16]: 52%
viability, T/C [17]: 71.1%
viability, T/C [18]: 65.1%
viability, T/C [19]: 37.4%
viability, T/C [20]: 39.1%
viability, T/C [21]: 48%
viability, T/C [22]: 47.5%
viability, T/C [23]: 48.8%
viability, T/C [24]: 47.9%
viability, T/C [25]: 19.2%
viability, T/C [26]: 21.6%
viability, T/C [27]: 24.2%
viability, T/C [28]: 29.7%
viability, T/C [29]: 23.5%
viability, T/C [30]: 14.3%
viability, T/C [31]: 0.21%
viability, T/C [32]: 0.22%
viability, T/C [33]: 0.17%
viability, T/C [34]: 0.25%
viability, T/C [35]: 0.22%
viability, T/C [36]: 0.16%

CC(C)n1c(=O)n(C)c2cnc3cc(F)c(-c4ccc(OCCCN5CCCCC5)nc4)cc3c21 + Cc1cnc(CNC(=O)c2c(=O)c3ccc(N4CCCN(C)CC4)nc3n3c2sc2ccccc23)cn1
IC50 (second compound 0.0316 µM): 3960 nM
IC50 (second compound 0.1 µM): 4640 nM
IC50 (second compound 0.316 µM): 1080 nM
IC50 (second compound 1 µM): < 31.6 nM
IC50 (second compound 3.16 µM): < 31.6 nM
IC50 (second compound 10 µM): < 31.6 nM
viability, T/C [1]: 81.5%
viability, T/C [2]: 68%
viability, T/C [3]: 74.5%
viability, T/C [4]: 56.7%
viability, T/C [5]: 61.4%
viability, T/C [6]: 32.5%
viability, T/C [7]: 61%
viability, T/C [8]: 61.6%
viability, T/C [9]: 63.3%
viability, T/C [10]: 57.8%
viability, T/C [11]: 60.9%
viability, T/C [12]: 28.6%
viability, T/C [13]: 50.7%
viability, T/C [14]: 64.7%
viability, T/C [15]: 52.8%
viability, T/C [16]: 49.3%
viability, T/C [17]: 42.9%
viability, T/C [18]: 30.9%
viability, T/C [19]: 42.4%
viability, T/C [20]: 45.1%
viability, T/C [21]: 45.7%
viability, T/C [22]: 48.1%
viability, T/C [23]: 26.1%
viability, T/C [24]: 5.54%
viability, T/C [25]: 14.6%
viability, T/C [26]: 8.86%
viability, T/C [27]: 7.48%
viability, T/C [28]: 16.6%
viability, T/C [29]: 5.15%
viability, T/C [30]: 0.23%
viability, T/C [31]: 0.18%
viability, T/C [32]: 0.2%
viability, T/C [33]: 0.2%
viability, T/C [34]: 0.18%
viability, T/C [35]: 0.29%
viability, T/C [36]: 0.16%

CC1COCCN1c1cc(-c2ccnn2C)c2ccnc(-c3ccn[nH]3)c2n1 (stereo unspecified) + Cc1cnc(CNC(=O)c2c(=O)c3ccc(N4CCCN(C)CC4)nc3n3c2sc2ccccc23)cn1
IC50 (second compound 0.0316 µM): 295 nM
IC50 (second compound 0.1 µM): 425 nM
IC50 (second compound 0.316 µM): 318 nM
IC50 (second compound 1 µM): < 31.6 nM
IC50 (second compound 3.16 µM): < 31.6 nM
IC50 (second compound 10 µM): < 31.6 nM
viability, T/C [1]: 72.1%
viability, T/C [2]: 54.9%
viability, T/C [3]: 54.7%
viability, T/C [4]: 35.4%
viability, T/C [5]: 36.2%
viability, T/C [6]: 23.9%
viability, T/C [7]: 61.8%
viability, T/C [8]: 59.4%
viability, T/C [9]: 52.4%
viability, T/C [10]: 42.2%
viability, T/C [11]: 30.6%
viability, T/C [12]: 21.3%
viability, T/C [13]: 51.8%
viability, T/C [14]: 57.6%
viability, T/C [15]: 50.5%
viability, T/C [16]: 37.9%
viability, T/C [17]: 26.5%
viability, T/C [18]: 15.1%
viability, T/C [19]: 36.5%
viability, T/C [20]: 41.9%
viability, T/C [21]: 34.6%
viability, T/C [22]: 26.3%
viability, T/C [23]: 13.4%
viability, T/C [24]: 9.95%
viability, T/C [25]: 22.4%
viability, T/C [26]: 21.2%
viability, T/C [27]: 11.5%
viability, T/C [28]: 4.04%
viability, T/C [29]: 3.7%
viability, T/C [30]: 2.53%
viability, T/C [31]: 0.11%
viability, T/C [32]: 0.14%
viability, T/C [33]: 0.18%
viability, T/C [34]: 0.15%
viability, T/C [35]: 0.16%
viability, T/C [36]: 0.15%

Source: PubChem BioAssay AID2060494 (Molecular Pharmacology Branch, DTP, NCI, 2025)
